# From patent US20120214743A1, “ITCH SUPPRESSANT” (University of Occupational and Environmental Health, Japan, priority 2009, published 2012)
# Ends that are not written are not given here. * marks the point of attachment. SO3H = O=S(=O)(O)*
# Tests used:
# FSMCs = experiment: Confocal imaging of intracellular Ca in FSMCs; assay type: cell-based, mouse
# Method: Confocal imaging of cells loaded with fluorescent dyes was undertaken using a Zeiss LSM5 pascal (Carl Zeiss, Jena, Germany). Fluo-4-AM (Invitrogen) (1 μM) was loaded at 37° C. for 20 min and washed twice and sit at least for 40 min. Mast cells, were stained for CD117 (c-kit) with Alexa Fluor 700-conjugated anti-mouse CD117 antibody. The LSM5 multi-track configuration was used for simultaneous measurement of intracellular Ca concentration (Ca) (excitation, 488 nm; emission, long-pass 505 nm filter) and the expression of CD117 (excitation, 633 nm; emission, long-pass 650 nm filter). Images were recorded at room temperature with 512×512 pixels. The application of stimulation, such SP and CCK, were applied directly in the bath as a small drop ([…]). Image data were analyzed off-line using the Zeiss LSM510 analyzing software (LSM Image Examiner).
# Thus, it is likely that CCK8S affects signaling in mast cells.
# ICR mice [1] = experiment: Contact hypersensitivity (CHS) mouse model to DNFB, ear swelling; assay type: in vivo; conditions: 0.5 nmol/ear painted immediately before DNFB challenge, measured 24 hours after challenge; FIG. 5C
# Method: For induction of CHS to 2,4-dinitrofluorobenzene (DNFB; Nakalai Tesque, Kyoto, Japan), ICR mice were sensitized on two consecutive days, days 0 and 1, on the clipped abdomen with 25 μL of 0.5% of DNFB diluted in acetone/olive oil (3:1). Five days later, animals were challenged on both sides of each ear by painting a nonirritant concentration of 0.2% DNFB. Before challenge, CCK8S (0.5 nmol/ear) diluted in acetone/olive oil (3:1) or only acetone/olive oil (control) was painted on each ear. The ear thickness of mice was measured using dial thickness gauge before and 24 hours after challenge. Ear swelling was calculated from the difference in ear thickness between before and after challenge.
# In CHS model, mice were sensitized with DNFB (2,4-dinitrofluorobenzene), a haptene, and the contact hypersensitivity raised by DNFB at day 5 lead to ear swelling.
# [2] = test system: FSMCs (mouse fetal skin derived mast cells); experiment: β-Hexosaminidase assay, compound 48/80-induced degranulation of FSMCs; assay type: cell-based; conditions: CCK8S at 10^−8 or 10^−7 M, 15 min at 37° C., FIG. 5B
# Method: FSMCs were washed with Tyrode's buffer (Sigma), and resuspended at 2×10^4 cells per well into a 96 well plate. FSMCs were treated with compound 48/80 with or without CCK8S for 15 min at 37° C. The plate was centrifuged for 5 min and supernatant was placed into another 96 well and cell pellet were resuspended with 0.5% Triton X-100 (Sigma) in Tyrode's buffer. Supernatant and cell lysate (50 μl) was incubated with 100 μl 4 mM p-nitrophenyl-N-acetyl-β-D-galactosaminide (Sigma), dissolved in citrate buffer, pH4.5, at 37 ° C. for 90 min. The reaction is stopped with 200 μl 0.2M Glycine (MP Biomedicals, Solon, Ohio), pH10.7. The plate was read at 405 nm using a reference filter 595 nm by Microplate Reader (Bio-Rad, Hercules, Calif.). β-hexosaminidase release was determined as the ratio between activity in the supernatant and cell lysate multiplied by 100.
# The addition of compound 48/80 induces degranulation in FSMCs.
# ICR mice [3] = experiment: SP-induced scratch behavior in ICR mice; assay type: in vivo, mouse
# Method: Since it is considered that external administration of CCK affects keratinocytes, at first, CCK2R agonist was administered transdermally (applying the solution prepared using acetone-olive (3:1)) to itch-related behavior model (ICR mice administered intradermally with SP (100 nmol)).
# The hair was clipped over the rostral part of the murine back one or two days prior to experiment. Before behavioral recording, each mouse (4 animals per observation) was put into an acrylic cage (18×23×11 cm) for at least 1 hr for acclamation. An intradermal injection of SP (100 nmol in normal saline per site) induces scratching of the skin around the injected site by the hind paws in mice. CCKs were topically applied in the two ways, percutaenous application and intradermal injection. For percutaneous application, the shaved back skin was stripped with Scotch tape (3M) 6 times the day before the experiment. The mice were painted on the clipped back with 20 μL CCK (0.5 nmol/site) in acetone/olive (3:1) 3-4 minutes before SP injection (100 nmol/site). […] Immediately after treatment, the animals were put back into the same cage and their behavior was videotaped using a digital video camera for 40 minutes. The frequency of scratch toward the injected site by hind paws was counted for the first 20 minutes with the video.
# NHEKs = experiment: IL-8 production in NHEK (cytometric bead array); assay type: cell-based, human; conditions: CCK8S 10^−9, 10^−8 or 10^−7 M, Ca 0.15 mM or 0.6 mM, FIG. 5A
# Method: IL^-8 concentration in the culture supernatants was quantified with Cytometric Bead Array (CBA) Flex Set System purchased from BD using FACSCanto (BD).
# NHEKs were stimulated with various concentrations of CCK8S (CCK8S concentration of 10^−9, 10^−8, or 10^−7 M, Ca concentration of 0.15 mM or 0.6 mM).
substance,measurement,setting,value
"Asp-Tyr(SO3H)-Met-Gly-Trp-Met-Asp-Phe-NH2 (DY(SO3H)MGWMDF-NH2) [CCK8S, natural type cholecystokinin, tyrosine at seventh position from C-terminal sulfated]",percentage of responding FSMCs,"FSMCs; Ca response after CCK8S, FIG. 6 bottom",45%
same,change of intracellular Ca concentration,"FSMCs; FSMCs, Fluo-4-AM, FIG. 6 top",transient increase
same,time to transient increase in Ca after the administration,"FSMCs; FSMCs, FIG. 6 top",≤ 1 min
same,ear swelling,ICR mice [1],suppressed
same,degranulation (β-hexosaminidase release) induced by compound 48/80,[2],suppression of degranulation was observed
same,"scratch behavior (frequency of scratch, first 20 minutes)","ICR mice [3]; subcutaneous administration, 0.5 nmol/site in saline simultaneously with SP 100 nmol, FIG. 3B",depressed
same,"scratch behavior (frequency of scratch, first 20 minutes)","ICR mice [3]; transdermal, 0.5 nmol/site in acetone/olive (3:1), tape-stripped skin, 3-4 minutes before SP 100 nmol/site intradermal, FIG. 3",significant reduction
same,production of IL-8,NHEKs,decreased in accordance with the concentration
